Test results from patent US20240059703A1 (AMGEN INC., priority 2021, published 2024).
Where two headings read alike, the source gives them in different places.

Assays:
KRAS G12C = KRAS G12C (Homo sapiens (Human), UniProt P01116, C118A/G12C); experiment: 2 h coupled exchange assay; format: biochemical
Description: The term “2 h coupled exchange assay” or “20 h coupled exchange assay” as used herein refers to the assay described in the Section entitled “BIOLOGICAL EVALUATION.”

[1] = system: MIA PaCa-2 (human pancreatic carcinoma) cells; experiment: Cell Viability Assay (CellTiter-Glo), MIA PaCa-2; format: cell-based
Description: Serially-diluted compound or DMSO was added to the cells, and plates were incubated at 37° C., 5% CO2 for 72 h. Cell viability was measured using a CellTiter-Glo® Luminescent Cell Viability Assay kit (Promega) according to the manufacturer's protocol. The luminescence signal of treated samples was normalized to DMSO control, and data were analyzed using a 4-parameter logistic model to calculate IC50 values.

[2] = system: A549 (human lung carcinoma) cells; experiment: Cell Viability Assay (CellTiter-Glo), A549; format: cell-based
Outline: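 RPMI 1640/10% FBS; seed 1.67E+04 cells/mL, o/n 37° C., 5% CO2; serial-dilution cmpd 72 h; CellTiter-Glo luminescence vs DMSO; 4-parameter logistic fit → IC50.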

[3] = Avg 2 h Coupled exchange IC50, 2 h compound pre-incubation, SOS-mediated nucleotide exchange
[4] = Avg 2 h Coupled exchange IC50, 2 h compound pre-incubation

Chain of KRAS G12C (P01116 other isoform, or with tags, fused parts or gaps G12C/C118A): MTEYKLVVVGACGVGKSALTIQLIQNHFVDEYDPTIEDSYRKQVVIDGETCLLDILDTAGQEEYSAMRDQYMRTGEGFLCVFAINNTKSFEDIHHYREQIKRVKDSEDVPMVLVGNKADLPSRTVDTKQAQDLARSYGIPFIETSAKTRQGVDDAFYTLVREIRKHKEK

| IC50 (KRAS G12C; [3]) [nM] | IC50 ([1]; Homo sapiens, MIA PaCa-2, 72 h) [nM] | IC50 ([2]; Homo sapiens, A549, 72 h) [nM] | IC50 (KRAS G12C; [4]) [nM] | IC50 ([1]; 72 h) [nM] | IC50 ([2]; 72 h) [nM] | IC50 (KRAS G12C; read-out: Avg 2 h Coupled exchange IC50, 2 h compound pre-incubation) [nM] | Compound |
| --- | --- | --- | --- | --- | --- | --- | --- |
| 82 | 207 | > 5000 | – | – | – | – | C=CC(=O)N1CC2(CCN(c3cc4c(c(-c5c(C)ccc6cnn(C)c56)c3C#N)CCC(C)(C)C4)C2)C1 [Example 2-97, 1-(1,6-dimethyl-1H-indazol-7-yl)-6,6-dimethyl-3-(2-(2-propenoyl)-2,6-diazaspiro[3.4]octan-6-yl)-5,6,7,8-tetrahydro-2-naphthalenecarbonitrile] |
| – | > 5000 | > 5000 | 482 | – | – | – | C=CC(=O)N1CC2(CCN(c3nc4c(OC)cccc4c(-c4c(C)ccc5[nH]ncc45)c3C#N)C2)C1 [Example 14-47, 8-methoxy-4-(5-methyl-1H-indazol-4-yl)-2-(2-(2-propenoyl)-2,6-diazaspiro[3.4]octan-6-yl)-3-quinolinecarbonitrile] |
| 109 | 885 | > 5000 | – | – | – | – | C=CC(=O)N1CC2(CCN(c3nc4cc(OC)ccc4c(-c4c(C)ccc5[nH]ncc45)c3C)C2)C1 [Example 2-48, 1-(6-(7-methoxy-3-methyl-4-(5-methyl-1H-indazol-4-yl)-2-quinolinyl)-2,6-diazaspiro[3,4]octan-2-yl)-2-propen-1-one] |
| – | 352 | 12400 | 134 | – | – | – | C=CC(=O)N1CC2(CCN(c3nc4c(c(-c5ccc(F)cc5F)c3C)CC[C@@H](c3c(C)cnn3C)C4)C2)C1 [Example 14-93, 1-(6-((7R)-4-(2,4-difluorophenyl)-7-(1,4-dimethyl-1H-pyrazol-5-yl)-3-methyl-5,6,7,8-tetrahydro-2-quinolinyl)-2,6-diazaspiro[3.4]octan-2-yl)-2-propen-1-one] |
| – | 348 | 12700 | 407 | – | – | – | C=CC(=O)N1CC2(CCN(c3nc4c(c(-c5cc(N)cc6ccccc56)c3C#N)COC(C)(C)C4)C2)C1 [Example 38-1, 4-(3-amino-1-naphthalenyl)-7,7-dimethyl-2-(2-(2-propenoyl)-2,6-diazaspiro[3.4]octan-6-yl)-7,8-dihydro-5H-pyrano[4,3-b]pyridine-3-carbonitrile] |
| – | 188 | > 5000 | 355 | – | – | – | C=CC(=O)N1CC2(CCN(c3nc4c(c(-c5c(C)ccc6[nH]ncc56)c3C)CCN(C3CC3)C4)C2)C1 [Example 18-16, 1-(6-(7-cyclopropyl-3-methyl-4-(5-methyl-1H-indazol-4-yl)-5,6,7,8-tetrahydro-1,7-naphthyridin-2-yl)-2,6-diazaspiro[3.4]octan-2-yl)-2-propen-1-one] |
| 163 | 1170 | > 5000 | – | – | – | – | C=CC(=O)N1CC2(CCN(c3nc4c(c(-c5c(C)ccc6[nH]ncc56)c3C#N)COCCC4(F)F)C2)C1 [Example 13-15, 9,9-difluoro-4-(5-methyl-1H-indazol-4-yl)-2-(2-(2-propenoyl)-2,6-diazaspiro[3.4]octan-6-yl)-5,7,8,9-tetrahydrooxepino[4,3-b]pyridine-3-carbonitrile] |
| – | 32 | 7620 | 45 | – | – | – | C=CC(=O)N1CC2(CCN(c3nc4c(c(-c5cc(O)cc6ccccc56)c3C)COC(C)(C)C4)C2)C1 (single isomer, unassigned) [Example 14-103, (M)-1-(6-(4-(3-hydroxy-1-naphthalenyl)-3,7,7-trimethyl-7,8-dihydro-5H-pyrano[4,3-b]pyridin-2-yl)-2,6-diazaspiro[3.4]octan-2-yl)-2-propen-1-one] |
| 1220 | 5270 | 10500 | – | – | – | – | C=CC(=O)N1CC2(CCN(c3nc4c(c(-c5cccc6sc(N)nc56)n3)CCCC4)C2)C1 [Example 1-23, 1-(6-(4-(2-amino-1,3-benzothiazol-4-yl)-5,6,7,8-tetrahydro-2-quinazolinyl)-2,6-diazaspiro[3,4]octan-2-yl)-2-propen-1-one] |
| – | 1530 | 9320 | 272 | – | – | – | C=CC(=O)N1CC2(CCN(c3nc4c(c(-c5c(F)cccc5Cl)c3C#N)COC(c3scnc3C)C4)C2)C1 [Example 23-36, (7R)-4-(2-chloro-6-fluorophenyl)-7-(4-methyl-1,3-thiazol-5-yl)-2-(2-(2-propenoyl)-2,6-diazaspiro[3.4]octan-6-yl)-7,8-dihydro-5H-pyrano[4,3-b]pyridine-3-carbonitrile (7S)-4-(2-chloro-6-fluorophenyl)-7-(4-methyl-1,3-thiazol-5-yl)-2-(2-(2-propenoyl)-2,6-diazaspiro[3.4]octan-6-yl)-7,8-dihydro-5H-pyrano[4,3-b]pyridine-3-carbonitrile] |
| – | 2990 | 16500 | 918 | – | – | – | C=CC(=O)N1CC2(CCN(c3nc4c(c(-c5ccc(F)cc5F)c3C#N)CCN(C(C)C)C4)C2)C1 [Example 21-27, 4-(2,4-difluorophenyl)-7-(2-propanyl)-2-(2-(2-propenoyl)-2,6-diazaspiro[3.4]octan-6-yl)-5,6,7,8-tetrahydro-1,7-naphthyridine-3-carbonitrile] |
| – | 96 | > 25000 | 214 | – | – | – | C=CC(=O)N1CC2(CCN(c3nc4c(c(-c5c(C)ccc(OC)c5N)c3C#N)COC(C)(C)C4)C2)C1 [Example 37-1, 4-(2-amino-3-methoxy-6-methylphenyl)-7,7-dimethyl-2-(2-(2-propenoyl)-2,6-diazaspiro[3.4]octan-6-yl)-7,8-dihydro-5H-pyrano[4,3-b]pyridine-3-carbonitrile] |
| 2590 | 5390 | 7230 | – | – | – | – | C=CC(=O)N1CC2(CCN(c3nc4c(c(-c5c(C)ccc6ccccc56)n3)CCCC4)C2)C1 [Example 1-12, 1-(6-(4-(2-methyl-1-naphthalenyl)-5,6,7,8-tetrahydro-2-quinazolinyl)-2,6-diazaspiro[3.4]octan-2-yl)-2-propen-1-one] |
| – | – | – | 127000 | 6220 | 9640 | – | C=CC(=O)N1CC2(CCN(c3nc4c(c(-c5c(O)cccc5F)c3C#N)CCC(c3scnc3C)=C4)C2)C1 (single isomer, unassigned) [Example 23-51, (M)-4-(2-fluoro-6-hydroxyphenyl)-7-(4-methyl-1,3-thiazol-5-yl)-2-(2-(2-propenoyl)-2,6-diazaspiro[3.4]octan-6-yl)-5,6-dihydro-3-quinolinecarbonitrile] |
| 56 | 237 | 6250 | – | – | – | – | C=CC(=O)N1CC2(CCN(c3nc4ccccc4c(-c4c(C)c(C)cc5[nH]ncc45)c3C#N)C2)C1 [Example 2-6, 4-(5,6-dimethyl-1H-indazol-4-yl)-2-(2-(2-propenoyl)-2,6-diazaspiro[3.4]octan-6-yl)-3-quinolinecarbonitrile] |
| 29 | > 5000 | > 5000 | – | – | – | – | C=CC(=O)N1CC2(CCN(c3nc4c(c(-c5cc(O)ccc5C)c3C#N)C[C@H]3C[C@@H]4C3)C2)C1 (single isomer, unassigned) [Example 13-126] |
| – | 537 | 3290 | 87 | – | – | – | C=CC(=O)N1CC2(CCN(c3nc4c(c(-c5ccccc5Cl)c3C#N)CCC(c3scnc3C)=C4)C2)C1 [Example 23-19, 4-(2-chlorophenyl)-7-(4-methyl-1,3-thiazol-5-yl)-2-(2-(2-propenoyl)-2,6-diazaspiro[3.4]octan-6-yl)-5,6-dihydro-3-quinolinecarbonitrile] |
| 14 | – | > 5000 | – | 36.4 | – | – | C=CC(=O)N1CC2(CCN(c3nc4c(c(-c5c(C)ccc6[nH]ncc56)c3C#N)CCC(C)(C)C4)C2)C1 (single isomer, unassigned) [Example 1-8, (P)-7,7-dimethyl-4-(5-methyl-1H-indazol-4-yl)-2-(2-(2-propenoyl)-2,6-diazaspiro[3,4]octan-6-yl)-5,6,7,8-tetrahydro-3-quinolinecarbonitrile] |
| – | – | – | – | 28 | 25000 | 87 | C=CC(=O)N1CC2(CCN(c3nc4c(c(-c5c(C)ccc6cnn(C)c56)c3C)CCN(C3(C)COC3)C4)C2)C1 (atropisomer, axis not shown; (M)) [Example 36-2, (M)-1-(6-(4-(1,6-dimethyl-H-indazol-7-yl)-3-methyl-7-(3-methyl-3-oxetanyl)-5,6,7,8-tetrahydro-1,7-naphthyridin-2-yl)-2,6-diazaspiro[3.4]octan-2-yl)-2-propen-1-one] |
| 94 | 88 | > 5000 | – | – | – | – | C=CC(=O)N1CC2(CCN(c3nc4c(c(-c5cc(O)cc(C)c5Cl)c3C)COC(C)(C)C4)C2)C1 [Example 12-1, 1-(6-(4-(2-chloro-5-hydroxy-3-methylphenyl)-3,7,7-trimethyl-7,8-dihydro-5H-pyrano[4,3-b]pyridin-2-yl)-2,6-diazaspiro[3.4]octan-2-yl)prop-2-en-1-one] |
| – | 3370 | > 25000 | 800 | – | – | – | C=CC(=O)N1CC2(CCN(c3nc4c(c(-c5cccc(F)c5O)c3C)CCN(c3scnc3C)C4)C2)C1 [Example 18-21, 1-(6-(4-(3-fluoro-2-hydroxyphenyl)-3-methyl-7-(4-methyl-1,3-thiazol-5-yl)-5,6,7,8-tetrahydro-1,7-naphthyridin-2-yl)-2,6-diazaspiro[3.4]octan-2-yl)-2-propen-1-one] |
